Data on 2 compounds can be found in paper PMC3050433, “The effects of maribavir on the autophosphorylation of ganciclovir resistant mutants of the cytomegalovirus UL97 protein” (Herpesviridae, 2010).

What all share (type): biochemical
The target in test [1] is T1, wild type UL97 (Human cytomegalovirus, UniProt Q68101).
T1 construct: PCR reaction to generate the full length UL97; honey bee melittin secretion signal (N); made in house; host or cells: Sf21 insect cells, recombinant baculovirus (pMelBac C)
T1 sequence (Q68101 whole entry): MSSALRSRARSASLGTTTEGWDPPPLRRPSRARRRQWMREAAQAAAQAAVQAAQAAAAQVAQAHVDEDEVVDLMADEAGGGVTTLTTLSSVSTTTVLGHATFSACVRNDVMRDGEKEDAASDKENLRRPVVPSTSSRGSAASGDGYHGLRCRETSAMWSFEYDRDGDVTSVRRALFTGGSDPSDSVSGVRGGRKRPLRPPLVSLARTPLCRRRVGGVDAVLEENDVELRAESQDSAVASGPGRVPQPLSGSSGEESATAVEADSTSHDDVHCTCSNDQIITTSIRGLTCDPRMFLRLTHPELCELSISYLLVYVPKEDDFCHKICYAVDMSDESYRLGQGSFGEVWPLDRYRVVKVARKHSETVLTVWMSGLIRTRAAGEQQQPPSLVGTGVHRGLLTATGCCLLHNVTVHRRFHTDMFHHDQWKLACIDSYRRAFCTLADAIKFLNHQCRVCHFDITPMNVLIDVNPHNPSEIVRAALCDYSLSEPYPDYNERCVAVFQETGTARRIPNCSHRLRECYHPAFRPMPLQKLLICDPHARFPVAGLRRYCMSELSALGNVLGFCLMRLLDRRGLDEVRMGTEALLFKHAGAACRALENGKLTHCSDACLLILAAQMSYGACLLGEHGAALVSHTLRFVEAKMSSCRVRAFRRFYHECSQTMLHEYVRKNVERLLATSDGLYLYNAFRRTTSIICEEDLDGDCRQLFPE
Nature of the test: UL97 autophosphorylation protein kinase assay, wild type. On the procedure:
(§1) Analysis of the autophosphorylation of wild type and mutant UL97 protein species was performed by a standard protein kinase assay as previously described (46). Briefly, purified protein was added to 2× protein kinase buffer (100 mM Tris HCl, pH9.0, 20 mM MgCl2, 10 μM ATP, 4 mM DTT, 2 M NaCl) and 370 KBq [γ^32P] ATP (Amersham), made up to 20 μl with SDW and incubated at 37°C. The reactions were terminated by the addition of 2× SDS sample buffer followed by boiling for 3 minutes. The amount of radiolabelled phosphate incorporated by autophosphorylation was analysed by SDS-PAGE and measured using the Biorad Mulitanalyst. The protein kinase assays were initially performed for 2 to 60 minutes to determine the maximum rate of phosphate incorporation, all assays were then performed at the maximum rate which equated to 5 minutes.
Enzyme kinetic analysis was performed on the purified wild type and mutant UL97 protein species as above using increasing concentrations of ATP (2 μM to 20 μM). The amount of incorporated radiolabelled phosphate was plotted against the concentration of ATP in a Lineweaver Burke plot to determine the Km for ATP for each UL97 species. The effect of maribavir upon the rate of radiolabelled phosphate incorporation by wild type or mutant UL97 was determined by protein kinase assays at a fixed concentration of maribavir (0.5 μM) as above, or with increasing concentrations of maribavir (0.01 μM to 5.0 μM) to determine the IC50 of maribavir for each UL97 species. In order to determine the nature of the inhibition mediated by maribavir, plots of 1/v vs 1/ATP with increasing concentrations of maribavir were constructed. Competitive inhibition was evident if the family of lines cconverged on the y-axis at 1/Vmax. The change in slope caused by the addition of maribavir was used to calculate the Ki using standard enzyme kinetic equations viz.

Test [2] addresses T2, UL97 M460I (Human cytomegalovirus, UniProt Q68101, M460I).
T2 construct: PCR reaction to generate the full length UL97; honey bee melittin secretion signal (N); made in house; host or cells: Sf21 insect cells, recombinant baculovirus (pMelBac C)
T2 sequence (Q68101 1-707 M460I): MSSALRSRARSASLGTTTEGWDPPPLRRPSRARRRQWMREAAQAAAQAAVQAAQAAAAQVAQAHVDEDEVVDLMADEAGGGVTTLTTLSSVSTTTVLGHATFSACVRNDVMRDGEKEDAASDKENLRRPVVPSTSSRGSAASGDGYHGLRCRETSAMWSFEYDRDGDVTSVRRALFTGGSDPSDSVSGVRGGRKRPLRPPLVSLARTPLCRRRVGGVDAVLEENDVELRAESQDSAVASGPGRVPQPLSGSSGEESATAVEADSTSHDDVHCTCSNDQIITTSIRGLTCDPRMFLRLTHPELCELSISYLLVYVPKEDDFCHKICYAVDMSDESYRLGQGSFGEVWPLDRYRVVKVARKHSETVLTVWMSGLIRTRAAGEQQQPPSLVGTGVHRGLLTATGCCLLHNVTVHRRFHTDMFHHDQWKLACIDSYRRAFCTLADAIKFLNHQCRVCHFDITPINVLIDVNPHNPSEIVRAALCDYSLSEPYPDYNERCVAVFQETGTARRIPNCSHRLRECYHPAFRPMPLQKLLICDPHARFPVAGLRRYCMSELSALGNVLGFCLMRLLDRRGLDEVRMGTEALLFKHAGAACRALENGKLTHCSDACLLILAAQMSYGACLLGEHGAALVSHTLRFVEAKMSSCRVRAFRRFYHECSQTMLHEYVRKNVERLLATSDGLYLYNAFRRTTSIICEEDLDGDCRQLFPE
Nature of the test: UL97 autophosphorylation protein kinase assay, M460I. On the procedure:
as §1
(§2) Enzyme kinetic analysis was performed on the purified wild type and mutant UL97 protein species as above using increasing concentrations of ATP (2 μM to 20 μM). The amount of incorporated radiolabelled phosphate was plotted against the concentration of ATP in a Lineweaver Burke plot to determine the Km for ATP for each UL97 species. […]

Test [3] has as its target T3, UL97 L595F (Human cytomegalovirus, UniProt Q68101, L595F).
T3 construct: PCR reaction to generate the full length UL97; honey bee melittin secretion signal (N); made in house; host or cells: Sf21 insect cells, recombinant baculovirus (pMelBac C)
T3 sequence (Q68101 1-707 L595F): T2 sequence (Q68101 1-707 M460I) with I460M, L595F
Nature of the test: UL97 autophosphorylation protein kinase assay, L595F. On the procedure: as §1, §2

Each structure is given as a SMILES string. Changes are numbered by the printed parent chain.

Turning to `CC(C)Nc1nc2cc(Cl)c(Cl)cc2n1[C@H]1O[C@@H](CO)[C@H](O)[C@@H]1O` [maribavir, 5,6-dichloro-2-(isopropylamino)-1-beta-L-ribofuranosyl-1H-benzimidazole], the “% autophosphorylation Plus Maribavir” value in test [1] (maribavir 0.5 μM, normalised relative to wild type, mean and SD of triplicate) is 4.5 ± 2.0%. Besides, the “nature of the inhibition” value in test [1] (wild type UL97, 1/v vs 1/ATP with increasing maribavir) is reported as “competitive inhibitor of ATP”. Besides, in test [1] (wild type UL97, competitive with ATP (2 μM to 20 μM), Lineweaver Burke plot), the Ki was 10 nM. The IC50 in test [1] (wild type UL97, increasing concentrations of maribavir) was 34 nM; in test [2] (M460I mutant), 4.8 nM; in test [3] (L595F mutant), 28 nM.
In the case of `Nc1ncnc2c1ncn2[C@@H]1O[C@H](COP(=O)(O)OP(=O)(O)OP(=O)(O)O)[C@@H](O)[C@H]1O` [ATP], the Michaelis-Menten constant (Km) in test [1] (wild type UL97, ATP 2 μM to 20 μM, 5 minutes) came out at 27 ± 2.2 µM; in test [2] (M460I, read-out: Km for ATP) it was 28 ± 2 µM; in test [3] (L595F, read-out: Km for ATP), 31 ± 4.5 µM.
